For one assay, the target named is Human HDAC6 (Homo sapiens (Human), UniProt Q9UBN7). Briefly: HDAC6 enzymatic activity assay (Caliper endpoint or fluorogenic format). The class given is biochemical. The following applies: for pIC50: in vitro enzymatic; for Selectivity (6 v 8) (fold): ratio of HDAC8 IC50/HDAC6 IC50.
The target of another assay is Human HDAC8 (Homo sapiens (Human), UniProt Q9BY41). In words: Caliper endpoint assay for HDAC8 enzymatic activity. The class given is biochemical. The conditions noted are these: in vitro enzymatic.

pIC50: −log10 of the molar value.

Chain of Human HDAC6 (Q9UBN7 whole entry): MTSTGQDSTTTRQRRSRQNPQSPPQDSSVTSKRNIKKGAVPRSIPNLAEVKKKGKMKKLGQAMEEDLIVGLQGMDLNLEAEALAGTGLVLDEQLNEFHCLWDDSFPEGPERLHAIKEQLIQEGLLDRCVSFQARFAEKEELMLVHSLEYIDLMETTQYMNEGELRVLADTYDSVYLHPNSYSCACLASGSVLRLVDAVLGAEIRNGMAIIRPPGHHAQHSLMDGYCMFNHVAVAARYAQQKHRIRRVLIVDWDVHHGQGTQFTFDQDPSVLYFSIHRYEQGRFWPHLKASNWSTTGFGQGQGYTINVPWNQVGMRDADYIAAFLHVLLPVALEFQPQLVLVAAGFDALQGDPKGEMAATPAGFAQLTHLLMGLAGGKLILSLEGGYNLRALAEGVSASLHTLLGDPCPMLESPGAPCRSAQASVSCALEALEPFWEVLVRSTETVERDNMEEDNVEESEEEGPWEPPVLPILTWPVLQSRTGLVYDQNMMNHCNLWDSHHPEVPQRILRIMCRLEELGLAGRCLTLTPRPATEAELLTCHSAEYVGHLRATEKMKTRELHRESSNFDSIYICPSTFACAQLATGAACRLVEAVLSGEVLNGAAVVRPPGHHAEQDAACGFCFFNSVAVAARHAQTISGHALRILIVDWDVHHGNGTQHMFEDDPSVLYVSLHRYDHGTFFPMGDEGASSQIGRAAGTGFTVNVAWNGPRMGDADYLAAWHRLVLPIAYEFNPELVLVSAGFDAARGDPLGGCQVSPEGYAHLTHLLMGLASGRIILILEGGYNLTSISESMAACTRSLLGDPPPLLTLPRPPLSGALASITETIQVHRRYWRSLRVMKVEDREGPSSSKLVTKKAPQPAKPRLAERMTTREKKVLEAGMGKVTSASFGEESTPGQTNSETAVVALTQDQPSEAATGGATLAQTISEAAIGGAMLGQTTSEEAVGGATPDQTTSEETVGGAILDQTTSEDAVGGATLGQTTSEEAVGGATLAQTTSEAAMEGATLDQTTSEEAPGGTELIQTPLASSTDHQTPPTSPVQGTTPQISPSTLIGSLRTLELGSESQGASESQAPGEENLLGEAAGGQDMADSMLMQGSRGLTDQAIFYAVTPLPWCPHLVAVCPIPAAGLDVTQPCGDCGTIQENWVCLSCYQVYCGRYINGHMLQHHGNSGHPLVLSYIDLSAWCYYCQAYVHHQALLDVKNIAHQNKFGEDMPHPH
Chain of Human HDAC8 (Q9BY41 whole entry): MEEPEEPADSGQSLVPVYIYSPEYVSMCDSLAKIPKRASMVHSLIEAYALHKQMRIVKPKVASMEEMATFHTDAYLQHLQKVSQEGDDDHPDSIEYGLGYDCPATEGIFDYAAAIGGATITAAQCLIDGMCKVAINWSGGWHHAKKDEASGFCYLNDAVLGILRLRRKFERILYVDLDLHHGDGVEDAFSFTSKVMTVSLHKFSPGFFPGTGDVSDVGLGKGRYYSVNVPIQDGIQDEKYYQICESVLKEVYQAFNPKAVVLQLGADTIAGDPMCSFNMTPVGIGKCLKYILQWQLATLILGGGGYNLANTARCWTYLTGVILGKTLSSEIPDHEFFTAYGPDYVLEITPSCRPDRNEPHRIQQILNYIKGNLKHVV

Consider `N#Cc1cccc(OCc2ccc(-c3nnc(C(F)F)o3)cn2)c1` [Compound 26], for which the results for the pIC50 against Human HDAC6 and on Human HDAC8 were 7.00 to 9.00 and < 4.00, respectively. Besides, the “Selectivity (6 v 8) (fold)” value at Human HDAC6 is “V (V: >1000)”.
The like results for `N#CCc1cccc(OCc2ccc(-c3nnc(C(F)F)o3)cn2)c1` [Compound 27] were, in that order, 7.00 to 9.00, < 4.00 and “V (V: >1000)”.
`FC(F)c1nnc(-c2ccc(COc3cccc4ocnc34)nc2)o1` [Compound 28]: on Human HDAC6, the pIC50 (commonly −log10 of the IC50, conventionally taken in molar units) is 7.00 to 9.00 and the “Selectivity (6 v 8) (fold)” value is reported as “V (V: >1000)”. Also, the pIC50 against Human HDAC8 is < 4.00.
The corresponding values for `N#Cc1c(F)cccc1OCc1ccc(-c2nnc(C(F)F)o2)cn1` [Compound 29] are 7.00 to 9.00, “IV (IV: >100-1000)” and 4.00 to 5.00.
The corresponding values for `N#Cc1cc(OCc2ccc(-c3nnc(C(F)F)o3)cn2)ccc1F` [Compound 30] are 7.00 to 9.00, “V (V: >1000)” and < 4.00.
As for `FC(F)c1nnc(-c2ccc(COc3ccc4ccncc4c3)nc2)o1` [Compound 31], the pIC50 at Human HDAC6 is 7.00 to 9.00; against Human HDAC8, 5.00 to 6.00. For the same molecule, the “Selectivity (6 v 8) (fold)” value on Human HDAC6 is listed as “IV (IV: >100-1000)”.
The corresponding values for `FC(F)c1nnc(-c2ccc(COc3ccc4cnccc4c3)nc2)o1` [Compound 32] are 7.00 to 9.00, 4.00 to 5.00 and “V (V: >1000)”.
With `FC(F)c1nnc(-c2ccc(COc3cccc4cnccc34)nc2)o1` [Compound 35], on Human HDAC6, the pIC50 was 7.00 to 9.00 and the “Selectivity (6 v 8) (fold)” value is “V (V: >1000)”. Besides, the pIC50 at Human HDAC8 was < 4.00.
For `FC(F)c1nnc(-c2ccc(COc3ccc4nccnc4c3)nc2)o1` [Compound 36], on Human HDAC6, the pIC50 is 7.00 to 9.00 and the “Selectivity (6 v 8) (fold)” value was “V (V: >1000)”. The pIC50 against Human HDAC8 is < 4.00.
As to `Cn1ncc2cc(OCc3ccc(-c4nnc(C(F)F)o4)cn3)ccc21` [Compound 37], on Human HDAC6, the pIC50 was 7.00 to 9.00 and the “Selectivity (6 v 8) (fold)” value is reported as “V (V: >1000)”. The pIC50 on Human HDAC8 was 4.00 to 5.00.
The corresponding values for `C#Cc1cccc(OCc2ccc(-c3nnc(C(F)F)o3)cn2)c1` [Compound 39] are 7.00 to 9.00, “V (V: >1000)” and < 4.00.
The like results for `C#Cc1ccccc1OCc1ccc(-c2nnc(C(F)F)o2)cn1` [Compound 41] were, in that order, 7.00 to 9.00, “V (V: >1000)” and < 4.00.
For the molecule `N#Cc1ccccc1OCc1ccc(-c2nnc(C(F)F)o2)cn1` [Compound 42], the pIC50 is 7.00 to 9.00 on Human HDAC6 and < 4.00 on Human HDAC8. Besides, at Human HDAC6, the “Selectivity (6 v 8) (fold)” value was “V (V: >1000)”.
In the case of `N#CCc1ccc(OCc2ccc(-c3nnc(C(F)F)o3)cn2)cc1` [Compound 43], at Human HDAC6, the pIC50 is 7.00 to 9.00 and the “Selectivity (6 v 8) (fold)” value is recorded as “IV (IV: >100-1000)”. In addition, the pIC50 against Human HDAC8 was 4.00 to 5.00.
The like results for `N#CCc1ccccc1OCc1ccc(-c2nnc(C(F)F)o2)cn1` [Compound 44] were, in that order, 7.00 to 9.00, “V (V: >1000)” and < 4.00.
The corresponding values for `N#Cc1cc(F)ccc1OCc1ccc(-c2nnc(C(F)F)o2)cn1` [Compound 45] are 7.00 to 9.00, “V (V: >1000)” and < 4.00.
The corresponding values for `N#Cc1cccc(OCc2ccc(-c3nnc(C(F)F)o3)cn2)c1F` [Compound 46] are 7.00 to 9.00, “V (V: >1000)” and < 4.00.
As for `N#Cc1ccc(OCc2ccc(-c3nnc(C(F)F)o3)cn2)c(F)c1` [Compound 47], at Human HDAC6, the pIC50 is 7.00 to 9.00 and the “Selectivity (6 v 8) (fold)” value was “V (V: >1000)”. The same molecule gave a pIC50 against Human HDAC8 of 4.00 to 5.00.
The like results for `N#Cc1cccc(F)c1OCc1ccc(-c2nnc(C(F)F)o2)cn1` [Compound 48] were, in that order, 7.00 to 9.00, “V (V: >1000)” and < 4.00.
The like results for `N#Cc1ccc(F)c(OCc2ccc(-c3nnc(C(F)F)o3)cn2)c1` [Compound 49] were, in that order, 7.00 to 9.00, “IV (IV: >100-1000)” and 4.00 to 5.00.
The corresponding values for `N#Cc1ccc(F)cc1OCc1ccc(-c2nnc(C(F)F)o2)cn1` [Compound 50] are 7.00 to 9.00, “V (V: >1000)” and < 4.00.
Consider `N#Cc1cc(F)cc(OCc2ccc(-c3nnc(C(F)F)o3)cn2)c1` [Compound 51], for which, at Human HDAC6, the pIC50 is 7.00 to 9.00 and the “Selectivity (6 v 8) (fold)” value is listed as “V (V: >1000)”. In addition, at Human HDAC8, the pIC50 was < 4.00.
The corresponding values for `N#Cc1ccc(OCc2ccc(-c3nnc(C(F)F)o3)cn2)cc1F` [Compound 52] are 7.00 to 9.00, “V (V: >1000)” and < 4.00.
The like results for `FC(F)c1nnc(-c2ccc(COc3ccc4ocnc4c3)nc2)o1` [Compound 53] were, in that order, 7.00 to 9.00, “V (V: >1000)” and < 4.00.
As for `FC(F)c1nnc(-c2ccc(COc3ccc4c(c3)CCCC4)nc2)o1` [Compound 54], at Human HDAC6, the pIC50 was 7.00 to 9.00 and the “Selectivity (6 v 8) (fold)” value is “V (V: >1000)”. The pIC50 at Human HDAC8 was < 4.00.
With `FC(F)c1nnc(-c2ccc(COc3cccc4nccnc34)nc2)o1` [Compound 55], at Human HDAC6, the pIC50 was 7.00 to 9.00 and the “Selectivity (6 v 8) (fold)” value is listed as “V (V: >1000)”. The pIC50 against Human HDAC8 was < 4.00.
The like results for `FC(F)c1nnc(-c2ccc(COc3cccc4cncnc34)nc2)o1` [Compound 56] were, in that order, 7.00 to 9.00, “V (V: >1000)” and < 4.00.
On to `Cn1cnc2cc(OCc3ccc(-c4nnc(C(F)F)o4)cn3)ccc21` [Compound 57], for which, on Human HDAC6, the negative logarithm of the IC50 (pIC50) was 7.00 to 9.00 and the “Selectivity (6 v 8) (fold)” value is “IV (IV: >100-1000)”. The pIC50 at Human HDAC8 is 4.00 to 5.00.
The corresponding values for `Cn1ncc2c(OCc3ccc(-c4nnc(C(F)F)o4)cn3)cccc21` [Compound 58] are 7.00 to 9.00, “V (V: >1000)” and < 4.00.
Regarding `Cc1noc2cc(OCc3ccc(-c4nnc(C(F)F)o4)cn3)ccc12` [Compound 59], on Human HDAC6, the pIC50 is 7.00 to 9.00 and the “Selectivity (6 v 8) (fold)” value is on record as “V (V: >1000)”. Further, the pIC50 on Human HDAC8 is < 4.00.
The like results for `Cc1noc2cccc(OCc3ccc(-c4nnc(C(F)F)o4)cn3)c12` [Compound 60] were, in that order, 7.00 to 9.00, “V (V: >1000)” and 4.00 to 5.00.
The like results for `Cc1nc2cc(OCc3ccc(-c4nnc(C(F)F)o4)cn3)ccc2o1` [Compound 61] were, in that order, 7.00 to 9.00, “IV (IV: >100-1000)” and 4.00 to 5.00.
The corresponding values for `FC(F)c1nnc(-c2ccc(COc3ccc4ncccc4c3)nc2)o1` [Compound 62] are 7.00 to 9.00, “V (V: >1000)” and 4.00 to 5.00.
Regarding `FC(F)c1nnc(-c2ccc(COc3ccon3)nc2)o1` [Compound 64], at Human HDAC6, the pIC50 was 6.00 to 7.00 and the “Selectivity (6 v 8) (fold)” value is on record as “V (V: >1000)”. For the same molecule, at Human HDAC8, the pIC50 was < 4.00.
The corresponding values for `Cn1cc(OCc2ccc(-c3nnc(C(F)F)o3)cn2)cn1` [Compound 65] are 6.00 to 7.00, “V (V: >1000)” and < 4.00.
In the case of `Cn1nccc1OCc1ccc(-c2nnc(C(F)F)o2)cn1` [Compound 67], the results for the pIC50 on Human HDAC6 and against Human HDAC8 were 6.00 to 7.00 and < 4.00, respectively. At Human HDAC6, the “Selectivity (6 v 8) (fold)” value is “V (V: >1000)”.
The like results for `FC(F)c1nnc(-c2ccc(COc3cnccn3)nc2)o1` [Compound 68] were, in that order, 6.00 to 7.00, < 4.00 and “V (V: >1000)”.
The corresponding values for `CCn1ccc(OCc2ccc(-c3nnc(C(F)F)o3)cn2)n1` [Compound 69] are 6.00 to 7.00, 4.00 to 5.00 and “IV (IV: >100-1000)”.
Regarding `Cc1ccc(OCc2ccc(-c3nnc(C(F)F)o3)cn2)cn1` [Compound 70], the values for the pIC50 on Human HDAC6 and against Human HDAC8 were 6.00 to 7.00 and < 4.00, respectively. The “Selectivity (6 v 8) (fold)” value at Human HDAC6 is recorded as “V (V: >1000)”.
The corresponding values for `Cc1ccnc(OCc2ccc(-c3nnc(C(F)F)o3)cn2)c1` [Compound 71] are 7.00 to 9.00, < 4.00 and “V (V: >1000)”.
The corresponding values for `Cc1cccc(OCc2ccc(-c3nnc(C(F)F)o3)cn2)n1` [Compound 72] are 6.00 to 7.00, < 4.00 and “V (V: >1000)”.
Consider `Cc1cccnc1OCc1ccc(-c2nnc(C(F)F)o2)cn1` [Compound 73], for which, on Human HDAC6, the pIC50 was 6.00 to 7.00 and the “Selectivity (6 v 8) (fold)” value is given as “V (V: >1000)”. Moreover, the pIC50 against Human HDAC8 is < 4.00.
The corresponding values for `Cc1cc(OCc2ccc(-c3nnc(C(F)F)o3)cn2)ccn1` [Compound 74] are 7.00 to 9.00, “V (V: >1000)” and < 4.00.
The corresponding values for `Cc1cnccc1OCc1ccc(-c2nnc(C(F)F)o2)cn1` [Compound 75] are 7.00 to 9.00, “IV (IV: >100-1000)” and 4.00 to 5.00.
The corresponding values for `Fc1ccc(OCc2ccc(-c3nnc(C(F)F)o3)cn2)nc1` [Compound 76] are 7.00 to 9.00, “V (V: >1000)” and < 4.00.
Turning to `Fc1cccnc1OCc1ccc(-c2nnc(C(F)F)o2)cn1` [Compound 77, 2-(Difluoromethyl)-5-[6-[(3-fluoro-2-pyridyl)oxymethyl]-3-pyridyl]-1,3,4-oxadiazole], on Human HDAC6, the pIC50 is 7.00 to 9.00 and the “Selectivity (6 v 8) (fold)” value is given as “V (V: >1000)”. The pIC50 against Human HDAC8 was < 4.00.
